Data published in ChEMBL document CHEMBL3885881, “DrugMatrix”.

Species on record: Rattus norvegicus
Type: toxicity, organism-based, Sprague-Dawley
Conditions: in vivo, po, route oral GAVAGE, […]; for ABSOLUTE EOSINOPHIL / ABSOLUTE LYMPHOCYTE / ABSOLUTE MONOCYTE / ABSOLUTE SEGMENTED NEUTROPHIL / BASOPHIL / EOSINOPHIL / ERYTHROCYTE COUNT / HEMATOCRIT / HEMOGLOBIN / LEUKOCYTE COUNT / LYMPHOCYTE / MEAN CORPUSCULAR HEMOGLOBIN / MEAN CORPUSCULAR HEMOGLOBIN CONCENTRATION / MEAN CORPUSCULAR VOLUME / MONOCYTE / NEUTROPHIL / NUCLEATED RED BLOOD CELLS / PLATELET COUNT: tissue Blood; for ALANINE AMINOTRANSFERASE / ALBUMIN / ALKALINE PHOSPHATASE / ASPARTATE AMINOTRANSFERASE / BLOOD UREA NITROGEN / CARBON DIOXIDE / CHLORIDE / CHOLESTEROL / CREATINE PHOSPHOKINASE / CREATININE / GLUCOSE / LACTATE DEHYDROGENASE / LIPASE / PHOSPHORUS / POTASSIUM / SODIUM / TOTAL BILIRUBIN / TOTAL PROTEIN / URIC ACID: tissue Plasma
[1] = 30 mg/kg, 24 h, dose level Low, time 1 day
[2] = 60 mg/kg, 6 h, dose level High, time 0.25 day
[3] = 60 mg/kg, 24 h, dose level High, time 1 day

Description: DrugMatrix - Regimen: Single

## S=C=Nc1cccc2ccccc12 [1-NAPHTHYLISOTHIOCYANATE]
[1]
  ABSOLUTE EOSINOPHIL: 0 CELLS/uL
  ABSOLUTE LYMPHOCYTE: 8784 CELLS/uL
  ABSOLUTE MONOCYTE: 359.5 CELLS/uL
  ABSOLUTE SEGMENTED NEUTROPHIL: 2189.83 CELLS/uL
  BASOPHIL: 0%
  EOSINOPHIL: 0%
  ERYTHROCYTE COUNT: 5.45 x10E6/uL
  HEMATOCRIT: 34.5%
  HEMOGLOBIN: 13.67 G/DL
  LEUKOCYTE COUNT: 11.33 x10E3/uL
  LYMPHOCYTE: 78.33%
  MEAN CORPUSCULAR HEMOGLOBIN: 25.1 pg
  MEAN CORPUSCULAR HEMOGLOBIN CONCENTRATION: 39.62 G/DL
  MEAN CORPUSCULAR VOLUME: 63.35 fL
  MONOCYTE: 2.83%
  NEUTROPHIL: 18.83%
  NUCLEATED RED BLOOD CELLS: 0 /100WBC
  PLATELET COUNT: 1092.83 x10E3/uL
  ALANINE AMINOTRANSFERASE: 122 u/L
  ALBUMIN: 3.92 G/DL
  ALKALINE PHOSPHATASE: 386.33 u/L
  ASPARTATE AMINOTRANSFERASE: 211 u/L
  BLOOD UREA NITROGEN: 11.67 mg/dL
  CARBON DIOXIDE: 35.83 mmol/L
  CHLORIDE: 97.33 MEQ/L
  CHOLESTEROL: 83.5 mg/dL
  CREATINE PHOSPHOKINASE: 327.33 u/L
  CREATININE: 0.3 mg/dL
  GLUCOSE: 139.33 mg/dL
  LACTATE DEHYDROGENASE: 171 u/L
  LIPASE: 9.33 u/L
  PHOSPHORUS: 9.87 mg/dL
  POTASSIUM: 4.44 MEQ/L
  SODIUM: 145.25 MEQ/L
  TOTAL BILIRUBIN: 1.02 mg/dL
  TOTAL PROTEIN: 6.05 G/DL
  URIC ACID: 0.5 mg/dL
[2]
  ABSOLUTE EOSINOPHIL: 98.5 CELLS/uL
  ABSOLUTE LYMPHOCYTE: 11852.33 CELLS/uL
  ABSOLUTE MONOCYTE: 375.83 CELLS/uL
  ABSOLUTE SEGMENTED NEUTROPHIL: 1556.67 CELLS/uL
  BASOPHIL: 0%
  EOSINOPHIL: 0.67%
  ERYTHROCYTE COUNT: 5.41 x10E6/uL
  HEMATOCRIT: 36.93%
  HEMOGLOBIN: 13.93 G/DL
  LEUKOCYTE COUNT: 13.88 x10E3/uL
  LYMPHOCYTE: 84.83%
  MEAN CORPUSCULAR HEMOGLOBIN: 25.75 pg
  MEAN CORPUSCULAR HEMOGLOBIN CONCENTRATION: 37.73 G/DL
  MEAN CORPUSCULAR VOLUME: 68.25 fL
  MONOCYTE: 2.67%
  NEUTROPHIL: 11.83%
  NUCLEATED RED BLOOD CELLS: 0 /100WBC
  PLATELET COUNT: 1029 x10E3/uL
  ALANINE AMINOTRANSFERASE: 53.6 u/L
  ALBUMIN: 4.36 G/DL
  ALKALINE PHOSPHATASE: 315.4 u/L
  ASPARTATE AMINOTRANSFERASE: 106 u/L
  BLOOD UREA NITROGEN: 9.8 mg/dL
  CARBON DIOXIDE: 17.2 mmol/L
  CHLORIDE: 104.6 MEQ/L
  CHOLESTEROL: 74.6 mg/dL
  CREATINE PHOSPHOKINASE: 475 u/L
  CREATININE: 0.21 mg/dL
  GLUCOSE: 258.8 mg/dL
  LACTATE DEHYDROGENASE: 229.4 u/L
  LIPASE: 11 u/L
  PHOSPHORUS: 16.5 mg/dL
  POTASSIUM: 5.82 MEQ/L
  SODIUM: 145.04 MEQ/L
  TOTAL BILIRUBIN: 0.22 mg/dL
  TOTAL PROTEIN: 5.82 G/DL
  URIC ACID: 2.54 mg/dL
[3]
  ABSOLUTE EOSINOPHIL: 30 CELLS/uL
  ABSOLUTE LYMPHOCYTE: 8567.5 CELLS/uL
  ABSOLUTE MONOCYTE: 316 CELLS/uL
  ABSOLUTE SEGMENTED NEUTROPHIL: 2953.17 CELLS/uL
  BASOPHIL: 0%
  EOSINOPHIL: 0.33%
  ERYTHROCYTE COUNT: 5.57 x10E6/uL
  HEMATOCRIT: 34.8%
  HEMOGLOBIN: 13.72 G/DL
  LEUKOCYTE COUNT: 11.87 x10E3/uL
  LYMPHOCYTE: 71.17%
  MEAN CORPUSCULAR HEMOGLOBIN: 24.67 pg
  MEAN CORPUSCULAR HEMOGLOBIN CONCENTRATION: 39.42 G/DL
  MEAN CORPUSCULAR VOLUME: 62.55 fL
  MONOCYTE: 2.67%
  NEUTROPHIL: 25.83%
  NUCLEATED RED BLOOD CELLS: 0 /100WBC
  PLATELET COUNT: 1101.5 x10E3/uL
  ALANINE AMINOTRANSFERASE: 142.33 u/L
  ALBUMIN: 3.88 G/DL
  ALKALINE PHOSPHATASE: 513.83 u/L
  ASPARTATE AMINOTRANSFERASE: 288 u/L
  BLOOD UREA NITROGEN: 11.17 mg/dL
  CARBON DIOXIDE: 34.17 mmol/L
  CHLORIDE: 95.83 MEQ/L
  CHOLESTEROL: 118 mg/dL
  CREATINE PHOSPHOKINASE: 254.17 u/L
  CREATININE: 0.34 mg/dL
  GLUCOSE: 133.33 mg/dL
  LACTATE DEHYDROGENASE: 241.83 u/L
  LIPASE: 80.33 u/L
  PHOSPHORUS: 10.95 mg/dL
  POTASSIUM: 3.66 MEQ/L
  SODIUM: 144.63 MEQ/L
  TOTAL BILIRUBIN: 2.2 mg/dL
  TOTAL PROTEIN: 6.13 G/DL
  URIC ACID: 0.45 mg/dL
